# Values joined by “and” are separate entries in the source; they are usually repeats but may differ in a detail not shown here. Identical values can stand only once.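 Where inhibition never reached the appropriate level, the endpoint shown equals the highest concentration tested. Otherwise, values were interpolated linearly from a five-concentration, 48-hour dose response in 96-well plates. At the GI50, growth is halved. At the TGI there is no net growth.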
# Tests used:
# Experiment in all cases: NCI tumour cell line growth inhibition, 48 h
# [1] = test system: 786-0 renal
# [2] = test system: A498 renal
# [3] = test system: A549 NSCLC
# [4] = test system: ACHN renal
# [5] = test system: CAKI-1 renal
# [6] = test system: CCRF-CEM leukemia
# [7] = test system: COLO 205 colon
# [8] = test system: DLD-1 colon
# [9] = test system: DMS 114 small cell lung
# [10] = test system: DMS 273 small cell lung
# [11] = test system: EKVX NSCLC
# [12] = test system: HCC-2998 colon
# [13] = test system: HCT-116 colon
# [14] = test system: HCT-15 colon
# [15] = test system: HL-60(TB) leukemia
# [16] = test system: HOP-18 NSCLC
# [17] = test system: HOP-62 NSCLC
# [18] = test system: HOP-92 NSCLC
# [19] = test system: HT29 colon
# [20] = test system: IGROV1 ovarian
# [21] = test system: K-562 leukemia
# [22] = test system: KM12 colon
# [23] = test system: KM20L2 colon
# [24] = test system: LOX IMVI melanoma
# [25] = test system: LXFL 529 NSCLC
# [26] = test system: M14 melanoma
# [27] = test system: M19-MEL melanoma
# [28] = test system: MALME-3M melanoma
# [29] = test system: MOLT-4 leukemia
# [30] = test system: NCI-H226 lung
# [31] = test system: NCI-H23 lung
# [32] = test system: NCI-H460 lung
# [33] = test system: OVCAR-3 ovarian
# [34] = test system: OVCAR-4 ovarian
# [35] = test system: OVCAR-5 ovarian
# [36] = test system: OVCAR-8 ovarian
# [37] = test system: RPMI-8226 leukemia
# [38] = test system: RXF 393 renal
# [39] = test system: SF-268 CNS
# [40] = test system: SF-295 CNS
# [41] = test system: SF-539 CNS
# [42] = test system: SK-MEL-2 melanoma
# [43] = test system: SK-MEL-28 melanoma
# [44] = test system: SK-MEL-5 melanoma
# [45] = test system: SK-OV-3 ovarian
# [46] = test system: SN12C renal
# [47] = test system: SNB-19 CNS
# [48] = test system: SNB-75 CNS
# [49] = test system: SNB-78 CNS
# [50] = test system: SR leukemia
# [51] = test system: SW-620 colon
# [52] = test system: TK-10 renal
# [53] = test system: U251 CNS
# [54] = test system: UACC-257 melanoma
# [55] = test system: UACC-62 melanoma
# [56] = test system: UO-31 renal
# [57] = test system: NCI-H522 lung
# [58] = test system: XF 498 CNS
smiles,measurement,setting,value
C[CH2][Sn]1([CH2]C)[O]C(=O)[O][Sn]([CH2]C)([CH2]C)[O]1,GI50,[1],17.6 µM
same,TGI,[1],32 µM
same,GI50,[2],17.7 µM
same,TGI,[2],32.1 µM
same,GI50,[3],> 65.4 µM
same,TGI,[3],> 100 µM
same,GI50,[4],> 50.4 µM
same,TGI,[4],> 64.6 µM
same,GI50,[5],1.44 µM
same,TGI,[5],9.72 µM
same,GI50,[6],5.39 µM
same,TGI,[6],31.8 µM
same,GI50,[7],> 41.1 µM
same,TGI,[7],> 57.1 µM
same,GI50,[8],25.6 µM
same,TGI,[8],> 57.8 µM
same,GI50,[9],12.6 µM
same,TGI,[9],26.7 µM
same,GI50,[10],59.4 µM
same,TGI,[10],> 100 µM
same,GI50,[11],> 41.8 µM
same,TGI,[11],> 57 µM
same,GI50,[12],60 µM
same,TGI,[12],> 100 µM
same,GI50,[13],> 42.9 µM
same,TGI,[13],> 57.7 µM
same,GI50,[14],25.3 µM
same,TGI,[14],> 54.4 µM
same,GI50,[15],26.4 µM
same,TGI,[15],81.7 µM
same,GI50,[16],17.2 µM
same,TGI,[16],31.2 µM
same,GI50,[17],41.8 µM
same,TGI,[17],> 68.2 µM
same,GI50,[18],17.7 µM
same,TGI,[18],33.1 µM
same,GI50,[19],25.6 µM
same,TGI,[19],> 62.2 µM
same,GI50,[20],> 57.6 µM
same,TGI,[20],> 87.8 µM
same,GI50,[21],13.7 µM
same,TGI,[21],78.1 µM
same,GI50,[22],> 61.5 µM
same,TGI,[22],> 100 µM
same,GI50,[23],31.6 µM
same,TGI,[23],> 87.7 µM
same,GI50,[24],17.2 µM
same,TGI,[24],33 µM
same,GI50,[25],8.78 µM
same,TGI,[25],21.7 µM
same,GI50,[26],18.8 µM
same,TGI,[26],33.1 µM
same,GI50,[27],18.5 µM
same,TGI,[27],37.9 µM
same,GI50,[28],16 µM
same,TGI,[28],29.9 µM
same,GI50,[29],41.7 µM
same,TGI,[29],> 100 µM
same,GI50,[30],> 43.8 µM
same,TGI,[30],> 58.4 µM
same,GI50,[31],17.9 µM
same,TGI,[31],35 µM
same,GI50,[32],> 60.3 µM
same,TGI,[32],> 100 µM
same,GI50,[33],23.5 µM
same,TGI,[33],> 61.8 µM
same,GI50,[34],> 100 µM
same,TGI,[34],> 100 µM
same,GI50,[35],> 45.8 µM
same,TGI,[35],> 59.5 µM
same,GI50,[36],14.2 µM
same,TGI,[36],20.4 µM
same,GI50,[37],17.2 µM
same,TGI,[37],47.6 µM
same,GI50,[38],15.5 µM
same,TGI,[38],30.3 µM
same,GI50,[39],18.9 µM
same,TGI,[39],36.6 µM
same,GI50,[40],19.4 µM
same,TGI,[40],34.7 µM
same,GI50,[41],19.7 µM
same,TGI,[41],38.5 µM
same,GI50,[42],15.8 µM
same,TGI,[42],29.6 µM
same,GI50,[43],13 µM
same,TGI,[43],25.8 µM
same,GI50,[44],21.1 µM
same,TGI,[44],40.8 µM
same,GI50,[45],> 100 µM
same,TGI,[45],> 100 µM
same,GI50,[46],> 63.4 µM
same,TGI,[46],> 100 µM
same,GI50,[47],18.4 µM
same,TGI,[47],33.6 µM
same,GI50,[48],> 63.8 µM
same,TGI,[48],> 86.7 µM
same,GI50,[49],17.1 µM
same,TGI,[49],37.4 µM
same,GI50,[50],30.8 µM
same,TGI,[50],> 100 µM
same,GI50,[51],15.2 µM
same,TGI,[51],29.2 µM
same,GI50,[52],18.7 µM
same,TGI,[52],32.8 µM
same,GI50,[53],14.8 µM
same,TGI,[53],29.8 µM
same,GI50,[54],17.8 µM
same,TGI,[54],33 µM
same,GI50,[55],16.8 µM
same,TGI,[55],32.5 µM
same,GI50,[56],45.8 µM
same,TGI,[56],> 100 µM
CC(=O)OCC1OC(n2c(-c3ccccc3)cc(-c3ccco3)c(C#N)c2=O)C(OC(C)=O)C(OC(C)=O)C1OC(C)=O (centres undefined),TGI,[1],> 100 µM
same,TGI,[2],> 100 µM
same,TGI,[3],> 100 µM
same,TGI,[4],> 100 µM
same,TGI,[5],> 100 µM
same,TGI,[6],> 100 µM
same,GI50,[7],> 31.6 µM and 87 µM
same,TGI,[7],> 100 µM
same,GI50,[8],> 53.1 µM and 25.8 µM
same,TGI,[8],> 100 µM
same,TGI,[9],> 100 µM
same,TGI,[10],> 100 µM
same,TGI,[11],> 100 µM
same,TGI,[12],> 100 µM
same,TGI,[13],> 100 µM
same,GI50,[14],> 100 µM and 18.3 µM
same,TGI,[14],> 100 µM
same,TGI,[15],> 100 µM
same,GI50,[16],28.2 µM
same,TGI,[16],78.1 µM
same,GI50,[17],> 100 µM and 22.1 µM
same,TGI,[17],> 100 µM and 65.4 µM
same,GI50,[18],9.2 µM and 50.8 µM
same,TGI,[18],21.8 µM and > 100 µM
same,TGI,[19],> 100 µM
same,TGI,[20],> 100 µM
same,GI50,[21],> 68.8 µM and 9.04 µM
same,TGI,[21],> 100 µM
same,GI50,[22],75 µM and 36.5 µM
same,TGI,[22],> 100 µM
same,GI50,[23],50.9 µM
same,TGI,[23],> 100 µM
same,GI50,[24],2.23 µM and 14.6 µM
same,TGI,[24],> 100 µM
same,TGI,[25],> 100 µM
same,GI50,[26],> 100 µM
same,TGI,[26],> 100 µM
same,TGI,[27],> 100 µM
same,GI50,[28],23 µM and 85.9 µM
same,TGI,[28],> 100 µM
same,TGI,[29],> 100 µM
same,TGI,[30],> 100 µM
same,TGI,[31],> 100 µM
same,TGI,[32],> 100 µM
same,TGI,[57],> 100 µM
same,TGI,[33],> 100 µM
same,TGI,[34],> 100 µM
same,TGI,[35],> 100 µM
same,TGI,[36],> 100 µM
same,TGI,[37],> 100 µM
same,TGI,[38],> 100 µM
same,GI50,[39],17.4 µM and 35 µM
same,TGI,[39],64.2 µM and > 100 µM
same,TGI,[40],> 100 µM
same,GI50,[41],16.3 µM and 84.6 µM
same,TGI,[41],> 100 µM
same,TGI,[42],36.9 µM and > 100 µM
same,TGI,[43],67 µM and > 100 µM
same,TGI,[44],> 100 µM
same,TGI,[45],> 100 µM
same,GI50,[46],77.2 µM and 23.5 µM
same,TGI,[46],> 100 µM
same,GI50,[47],90.5 µM and 36.3 µM
same,TGI,[47],> 100 µM
same,GI50,[48],13.3 µM and > 100 µM
same,TGI,[48],40.9 µM and > 100 µM
same,TGI,[49],> 100 µM
same,GI50,[50],> 100 µM and 46.1 µM
same,TGI,[50],> 100 µM
same,TGI,[51],> 100 µM
same,TGI,[52],> 100 µM
same,GI50,[53],98 µM and 17.8 µM
same,TGI,[53],> 100 µM
same,TGI,[54],> 100 µM
same,GI50,[55],23.3 µM and 55.8 µM
same,TGI,[55],> 100 µM
same,GI50,[56],> 100 µM and 21.2 µM
same,TGI,[56],> 100 µM and 67.6 µM
same,TGI,[58],43.7 µM
O=C(Nc1ccccc1)c1ccc(Cl)c([N+](=O)[O-])c1,TGI,[1],20.8 µM
same,TGI,[2],63.9 µM
same,TGI,[3],> 100 µM
same,TGI,[5],40.4 µM
same,TGI,[6],28.7 µM
same,TGI,[7],70 µM
same,TGI,[8],> 100 µM
same,TGI,[9],33.2 µM
same,TGI,[10],14.2 µM
same,TGI,[11],> 100 µM
same,TGI,[14],46.5 µM
same,TGI,[17],> 100 µM
same,TGI,[19],70.1 µM
same,TGI,[20],54.3 µM
same,TGI,[21],14.3 µM
same,TGI,[22],12.7 µM
same,TGI,[23],47.5 µM
same,TGI,[24],> 100 µM
same,TGI,[25],18.5 µM
same,TGI,[26],29.9 µM
same,TGI,[27],34.3 µM
same,TGI,[28],42.4 µM
same,TGI,[29],21.8 µM
same,TGI,[30],68.4 µM
same,TGI,[31],63.6 µM
same,TGI,[32],98.9 µM
same,TGI,[57],32 µM
same,TGI,[33],43.5 µM
same,TGI,[36],39.6 µM
same,TGI,[37],37.6 µM
same,TGI,[38],75.5 µM
same,TGI,[40],> 100 µM
same,TGI,[41],60.5 µM
same,TGI,[42],32.4 µM
same,TGI,[43],61.4 µM
same,TGI,[44],20 µM
same,TGI,[45],65 µM
same,TGI,[46],79.4 µM
same,TGI,[47],97.4 µM
same,TGI,[48],71.6 µM
same,TGI,[49],83.9 µM
same,TGI,[51],34 µM
same,TGI,[52],> 100 µM
same,TGI,[53],> 100 µM
same,TGI,[54],48.4 µM
same,TGI,[55],24.9 µM
same,TGI,[56],> 100 µM
same,TGI,[58],43.4 µM

# From PubChem BioAssay (NCI)
